Bounds are passed on as bounds.

Data set [1] relates to PD-L1 cell surface expression in AML cell lines (PL-21, TUR, MOLM-14, MV-4-11). Kind of data set: Flow cytometry of IFN-γ-induced PD-L1 cell surface expression in AML cells. Format: cell-based, human. Conditions: 24 hours. The procedure: FIG. 13A-D: MPC-0767 blocks IFN-γ-induced PD-L1 expression in AML cells. A) PL-21, B) TUR, C) MOLM-14, D) MV-4-11 cells treated with MPC-0767 (2 μM), IFN-γ (50 ng/ml) or IFN-γ+MPC-0767 for 24 h before cells were harvested for assessment of PD-L1 cell surface expression.
To ascertain whether MPC-0767 can block IFN-γ-induced PD-L1 expression in AML cells, four AML cell lines harboring WT FLT3 (n=2) or FLT3-ITD (n=2) were treated with human IFN-γ (50 ng/ml) alone, MPC-0767 (2 μM) alone or the combination for 24 hours. Cells were harvested to determine PD-L1 cell surface expression by flow cytometry. Cells were also stained with a viability stain to gate on viable cells and exclude any dead cells. As shown in FIG. 13A-D, all cell lines induced PD-L1 cell surface expression in response to IFN-γ treatment (6-25 fold).
(In general: In flow cytometry, cells or beads pass a laser one at a time.)

Data set [2] concerns MV-4-11, MOLM-16, TUR, U937, KMS-28, OCI-LY-19 and Z138 cell lines. Kind of data set: Synergy of MPC-0767 and venetoclax versus basal BCL-2 abundance. Format: cell-based, human. Conditions: 72 hours, CellTiter-Glo. The procedure: FIG. 12: Cell lines representing acute myeloid leukemia, multiple myeloma, diffuse large B cell lymphoma and mantle cell lymphoma were assayed for basal abundance of BCL-2 (Y axis) and a high/low threshold is shown by dashed line. Cell line sensitivity to venetoclax after 72 hour treatment as assessed by CellTiter-Glo (X axis) is denoted by EC50 values shown in parentheses. Following drug combination treatment of MPC-0767 and venetoclax, determination of synergy is shown by bar graphs in black (synergy observed) or grey (no synergy observed).
After 72 hour treatment with the indicated drug combinations, cell viability was assessed using CellTiter-Glo. […] The absolute EC75 for each single agent and drug combination was calculated using the R package DRC (Ritz et al., Dose-Response Analysis Using R. PLoS One. 2015. 10(12):e0146021; R Core Team, A language and environment for statistical computing. R Foundation for Statistical Computing, Vienna, Austria. 2017). […]
To test whether BCL-2 abundance is predictive of the synergy between HSP90 inhibitors and venetoclax observed here, we analyzed BCL-2 abundance in cell lines representing acute myeloid leukemia (MV-4-11, MOLM-16, TUR and U937), multiple myeloma (KMS-28), diffuse large B cell lymphoma (OCI-LY-19) and mantle cell lymphoma (Z138) under basal conditions using flow cytometry. […]
(In ATP-based viability assays light output follows the ATP content of the culture.)

Data set [3] has as its system IFN-γ-induced PD-L1 expression in SK-MEL-28 cells. Kind of data set: 10-point dose response validation of IFN-γ-induced PD-L1 signal. Type of data set: cell-based, human. Particulars: 48 h; for concentration required to inhibit IFN-γ-induced PD-L1 expression compared with concentration required to affect cell proliferation: SK-MEL-28, IFN-γ 50 ng/ml, FIG. 2A-E; for IFN-γ-induced PD-L1 signal: SK-MEL-28, 10-point dose response 9.8-5000 nM, FIG. 1A-D. As for the experimental part: FIG. 1A-D. Validation dose response curves of HSP90 inhibitors tested in the original screen. A) CNF2024; B) PF04928473; C) tanespimycin; D) HSP-990. SK-MEL-28 cells treated with IFN-γ and with the indicated HSP90 inhibitor at different concentrations. Cells were assayed for cell viability (square, % viability on left axis) and PD-L1 expression (circle, Z-score right axis) at 48 h after treatment of IFN-γ and/or HSP90 inhibitors. Quadruplicate wells were used for determination of cell viability and PD-L1 expression. Average values were plotted. […] Lysates were probed with anti PD-L1 antibody.
(§1) FIG. 2A-E. Dose response curves of 5 additional HSP90 inhibitors. A) STA-9090, B) CUDC-305, C) MPC-3100, D) XL-888 and E) TAS-116. SK-MEL-28 cells treated with IFN-γ (50 ng/ml) and with the indicated HSP90 inhibitor at different concentrations. Cells were assayed for cell viability (square, % viability on left axis) and PD-L1 expression (circle, Z-score right axis) at 48 h after treatment of IFN-γ and/or HSP inhibitors. Quadruplicate wells were used for determination of cell viability and PD-L1 expression. Average values were plotted.
After assessment for viability, plates were then prepared for immunostaining. Briefly, 16% paraformaldehyde (Electron Microscopy Sciences) was added to each well to a final concentration of 4%, for 10 minutes at room temperature. Following this time, the fix was aspirated and cells were washed 3 times with PBS. Cells were blocked using blocking solution (1% bovine serum albumin in PBS) for 30 minutes. After this time, the blocking reagent was aspirated and immunostaining reagent added. The immunostaining reagent consisted of a biotin conjugated-PD-L1 antibody (eBioscience) diluted in blocking buffer. Plates were sealed and kept at 4 C overnight. The following day, plates were washed 3 times with PBS followed by addition of a streptavidin-luciferase fusion protein (Invivogen) diluted in blocking buffer, for 1 h at room temperature. After this step, the plates were washed 3 times with PBS. After the final wash, PBS was aspirated and 30 uL of QUANTI-Luc™ (Invivogen) was added per well. Plates were immediately read on a plate reader (Victor 3V plate reader, 0.1s) and luciferase activity measured.
The raw PD-L1 intensity (the luciferase readout) corresponding to drug screen plates was normalized to blank plates containing only IFN-γ-treated wells, and the resulting ratio was used for the calculation of Z-scores.
(§2) These 4 HSP90 inhibitors were validated using the same experimental protocol employed above (using the SK-MEL-28 cells +/−IFN-γ in 384 well plates), with the only exception to the original assay design was that each drug was now tested in a 10-point dose response assay where the concentration of drug tested was 9.8-5000 nM (2 fold serial dilution). Cells were seeded and treated in quadruplicate. Viability was assessed after 48 h of treatment of four HSP 90 inhibitors and prior to harvesting the cells for testing PD-L1 signal, as described above.

Data set [4] in a line: alamarBlue cell viability. Format: cell-based. Particulars: human, SK-MEL-28 cells, SK-MEL-28, highest concentration tested (1000 nM), IFN-γ 50 ng/ml. The procedure:
as §1
44 h later, cell viability was determined using alamarBlue™ cell viability reagent (Thermofisher), according to the manufacturers protocol. Briefly, 3 μL of alamarBlue™ reagent was added to each well and plates were incubated for a further 4 h. The plates were read on a Victor ^3V plate reader (Perkin Elmer). Viability for each drug was expressed as a percentage by comparing drug-treated cells and untreated control cells (Set to 100%).
as §2
Background: The colour change of resazurin is a common sign of viable cells or microbes.

In data set [5] the test system is IFN-γ-induced PD-L1 expression in SK-MEL-28 cells. Kind of data set: High-content primary screen for small molecules that reduce IFN-γ induced PD-L1 expression. Format: cell-based, human. Particulars: SK-MEL-28, IFN-γ 50 ng/ml, drugs at 40, 480 and 5000 nM, viability >75%. As for the experimental part:
SK-MEL-28 cells (melanoma cell line; […] Cells were expanded in MEM (Corning) containing 10% FBS (Sigma) and 2 mM L-Glutamine. Frozen stocks of cells were prepared for direct use in the high-throughput screening (HTS) assay. Cells were harvested, pelleted and then resuspended in 95% FBS & 5% DMSO at a concentration 1×10^7 cells/ml. One ml aliquots were rate frozen to −80° C. at a rate of 1 degree per minute. These stocks were then transferred to vapor phase liquid nitrogen for long term storage. For screening, frozen cell vials were quickly thawed with continuous agitation in a at 37° C. water bath then re-suspended in the assay media at room temperature and centrifuged at 1,000 rpm for 5 minutes. The resulting pellet was re-suspended in appropriate volume and counted using an automated cell counter and diluted accordingly. Using a manually curated library of approximately 2500 individual drugs (2000 approved drugs, 500 unapproved drugs), drugs from the source plate were transferred to the destination plates (384-well assay plates—Corning #3712) using an ECHO 550 liquid handler (Labcyte). SK-MEL-28 cells (1750 cells per well in 30 μL of media), treated with IFN-g (50 ng/ml final) were added to these pre-formatted plates using a Multidrop™ Combi reagent dispenser (Thermofisher). […] Plates were centrifuged at 800 rpm for one minute before being incubated in a 5% CO2 humidified incubator at 37° C. After assessment for viability, plates were then prepared for immunostaining. Briefly, 16% paraformaldehyde (Electron Microscopy Sciences) was added to each well to a final concentration of 4%, for 10 minutes at room temperature. Following this time, the fix was aspirated and cells were washed 3 times with PBS. […] After this time, the blocking reagent was aspirated and immunostaining reagent added. […] Plates were sealed and kept at 4 C overnight. […] After this step, the plates were washed 3 times with PBS. After the final wash, PBS was aspirated and 30 uL of QUANTI-Luc™ (Invivogen) was added per well.

`C[C@H](N)C(=O)O[C@@H](C)C(=O)N1CCC(CCn2c(Sc3cc4c(cc3Br)OCO4)nc3c(N)ncnc32)CC1` [MPC-0767]: in data set [1] (MPC-0767 2 μM alone, four AML cell lines), the “basal PD-L1 cell surface expression” value was “did not significantly reduce”. In addition, in data set [1] (MPC-0767 2 μM with IFN-γ 50 ng/ml, range over four AML cell lines), the “reduction of IFN-γ-induced PD-L1 cell surface expression” value was 43-83%. Also, the figures for the synergy with venetoclax result in data set [2] (cell lines with high BCL-2 levels) and in data set [2] (three cell lines with low BCL-2 levels) were “observed in 4 out of 4 cell lines” and “no synergy was observed”, respectively.
Consider `CN(C)c1cc2c(cc1Sc1nc3c(N)nccc3n1CCNCC(C)(C)C)OCO2` [CUDC-305], for which the “concentration required to inhibit IFN-γ-induced PD-L1 expression compared with concentration required to affect cell proliferation” value in data set [3] is listed as “far lower”. Also, the viability (commonly a per cent measure of how many cells are alive, often set against a control) at 48 h, 1 µM in data set [4] was more than 80%.
As to `COc1cccc(-c2cc(F)ccc2[C@H]2Cc3nc(N)nc(C)c3C(=O)N2)n1` [HSP-990], in data set [5], the “hit in the primary screen (reduction of IFN-γ-induced PD-L1 expression)” value was “identified as hits”. In addition, the “IFN-γ-induced PD-L1 signal” value in data set [3] is recorded as “blocked”.
On to `CC(C)c1cc(-c2n[nH]c(=O)n2-c2ccc3c(ccn3C)c2)c(O)cc1O` [STA-9090], for which, in data set [3], the “concentration required to inhibit IFN-γ-induced PD-L1 expression compared with concentration required to affect cell proliferation” value is “far lower”. In addition, in data set [4], the viability at 48 h, 1 µM was more than 80%.
`CC[C@@H](C)Nc1cc(C(=O)NC2CC3CCC(C2)N3c2ccc(C(=O)C3CC3)cn2)c(C)cc1C(N)=O` (stereo partly drawn) [XL-888]: the “concentration required to inhibit IFN-γ-induced PD-L1 expression compared with concentration required to affect cell proliferation” value in data set [3] was “far lower”. This molecule also came in with a viability at 48 h, 1 µM in data set [4] of more than 80%.
`COc1c(C)cnc(Cn2cnc3c(Cl)nc(N)nc32)c1C` [CNF-2024]: the “hit in the primary screen (reduction of IFN-γ-induced PD-L1 expression)” value in data set [5] is reported as “identified as hits”. The “IFN-γ-induced PD-L1 signal” value in data set [3] is recorded as “blocked”.
Take `CC1(C)CC(=O)c2c(C(F)(F)F)nn(-c3ccc(C(N)=O)c(N[C@H]4CC[C@H](O)CC4)c3)c2C1` [PF0498473]: the “hit in the primary screen (reduction of IFN-γ-induced PD-L1 expression)” value in data set [5] was “identified as hits”. Further, the “IFN-γ-induced PD-L1 signal” value in data set [3] was “blocked”.
With `CCc1cc(C(N)=O)ccc1-n1nc(C(C)C)c2c(-n3cnc(-c4cnn(C)c4)c3)ccnc21` [TAS-116], the “concentration required to inhibit IFN-γ-induced PD-L1 expression compared with concentration required to affect cell proliferation” value in data set [3] is listed as “far lower”. In data set [4], the viability at 48 h, 1 µM is more than 80%.
As for `C=CCNC1=C2C[C@@H](C)C[C@H](OC)[C@H](O)[C@@H](C)/C=C(\C)[C@H](OC(N)=O)[C@@H](OC)/C=C\C=C(/C)C(=O)NC(=CC1=O)C2=O` [tanespimycin], in data set [5], the “hit in the primary screen (reduction of IFN-γ-induced PD-L1 expression)” value is on record as “identified as hits”. Also, the “IFN-γ-induced PD-L1 signal” value in data set [3] was “blocked”.

B1: IFN-γ: human interferon-gamma used to induce PD-L1 (protein, UniProt P01579 24-161, looked up)
Interferon gamma: QDPYVKEAENLKKYFNAGHSDVADNGTLFLGILKNWKEESDRKIMQSQIVSFYFKLFKNFKDDQSIQKSVETIKEDMNVKFFNSNKKKRDDFEKLTNYSVTDLNVQRKAIHELIQVMAELSPAAKTGKRKRSQMLFRG
Turning to B1, the “induction of PD-L1 cell surface expression” value in data set [1] (human IFN-γ 50 ng/ml alone, range over four AML cell lines) is listed as 6-25 fold.

The values above are taken from patent US10799508B2, “Methods for treating cancer using HSP90 inhibitors” (AI Therapeutics, Inc., priority 2017, dated 2020).
